Data on ten compounds can be found in patent US9340513B2, “Propenoate derivatives of betulin” (GlaxoSmithKline LLC, priority 2011, dated 2016).

The test has as its system HIV-1 (strain IIIB). Put plainly: MT4 Cell Antiviral Assay. It is filed as cell-based. The settings on record: Human immunodeficiency virus 1, 120 h; HIV-1 strain IIIB in MT4 cells, 5 days, Cell Titer-Glo; 50% decrease in HIV-induced cytopathic effect. The method, then:
Antiviral HIV activity and compound-induced cytotoxicity were measured in parallel based on a modified protocol of the propidium iodide based procedure in the human T-cell lymphotropic virus transformed cell line MT4. Aliquots of the test compounds were serially diluted in DMSO plated in 96-well plates. Exponentially growing MT4 cells were harvested and pelleted. Cell pellets were resuspended in fresh medium (RPMI 1640, 10% FCS, and gentamycin. Cell aliquots were infected by the addition of HIV-1 (strain IIIB) diluted to give a viral multiplicity of infection of 300×TCID50/million cells. A similar cell aliquot was diluted with medium to provide a mock-infected control. Cell infection was allowed to proceed for 1 hr at 37° C. in a tissue culture incubator with humidified 5% CO2 atmosphere. After the 1 hr incubation the virus/cell suspensions were diluted with fresh medium, and added to each well of the plate containing pre-diluted compound. Plates were then placed in a tissue culture incubator with humidified 5% CO2 for 5 days. […] The plates were analyzed in an automated plate reader for luminescence.assay. The control and standard used was efavirinz tested over a concentration range of 0.001 to 1 μM in every assay. The expected range of IC50 values for efavirinz is 0.1 to 1 nM.
The antiviral effect of a test compound is reported as an IC50, i.e. the inhibitory concentration that would produce a 50% decrease in the HIV-induced cytopathic effect. This effect is measured by the amount of test compound required to restore 50% of the cell growth of HIV-infected MT4 cells, compared to uninfected MT4 cell controls. IC50 was calculated by RoboSage, Automated Curve Fitting Program.
For each assay plate, the results (of wells containing uninfected cells or infected cells with no compound were averaged, respectively. For measurements of compound-induced cytotoxicty, results from wells containing various compound concentrations and uninfected cells were compared to the average of uninfected cells without compound treatment. Percent of cells remaining is determined by the following formula: Percent of cells remaining=(compound-treated uninfected cells/untreated uninfected cells)×100.
A level of percent of cells remaining of 79% or less indicates a significant level of direct compound-induced cytotoxicity for the compound at that concentration. When this condition occurs the results from the compound-treated infected wells at this concentration are not included in the calculation of IC50.
For measurements of compound antiviral activity, results from wells containing various compound concentrations and infected cells are compared to the average of uninfected and infected cells without compound treatment. Percent inhibition of virus is determined by the following formula: Percent inhibition of virus=(1−((ave. untreated uninfected cells−treated infected cells)/(ave. untreated uninfected cells−ave. untreated infected cells)))×100
A general note: In ATP-based viability assays light output follows the ATP content of the culture.

A word on the IC50: it is the concentration needed to halve the response being measured. Compound `CC(C)C1=C2[C@H]3CC[C@@H]4[C@@]5(C)CC[C@H](OC(=O)CC(C)(C)C(=O)O)C(C)(C)[C@@H]5CC[C@@]4(C)[C@]3(C)CC[C@@]2(/C=C/C(=O)N[C@H](C)c2ccc(Cl)cn2)CC1=O` [Example 5, 4-(((3aS,5aR,5bR,7aR,9S,11aR,11bR,13aS)-3a-((E)-3-(((R)-1-(5-Chloropyridin-2-yl)ethyl)amino)-3-oxoprop-1-en-1-yl)-1-isopropyl-5a,5b,8,8,11a-pentamethyl-2-oxo-3,3a,4,5,5a,5b,6,7,7a,8,9,10,11,11a,1 b,12,13,13a-octadecahydro-2H-cyclopenta[a]chrysen-9-yl)oxy)-2,2-dimethyl-4-oxobutanoic acid] returned an IC50 of under 10 nM.

On to `CC(C)C1=C2[C@H]3CC[C@@H]4[C@@]5(C)CC[C@H](OC(=O)CC(C)(C)C(=O)O)C(C)(C)[C@@H]5CC[C@@]4(C)[C@]3(C)CC[C@@]2(/C=C/C(=O)Nc2ccc(Cl)cn2)CC1=O` [Example 18, 4-(((3aS,5aR,5bR,7aR,9S,11aR,11bR,13aS)-3a-((E)-3-((5-Chloropyridin-2-yl)amino)-3-oxoprop-1-en-1-yl)-1-isopropyl-5a,5b,8,8,11a-pentamethyl-2-oxo-3,3a,4,5,5a,5b,6,7,7a,8,9,10,11,11a,11b,12,13,13a-octadecahydro-2H-cyclopenta[a]chrysen-9-yl)oxy)-2,2-dimethyl-4-oxobutanoic acid], for which the IC50 was 10 to 250 nM. For `CC(C)C1=C2[C@H]3CC[C@@H]4[C@@]5(C)CC[C@H](OC(=O)CC(C)(C)C(=O)O)C(C)(C)[C@@H]5CC[C@@]4(C)[C@]3(C)CC[C@@]2(/C=C/C(=O)NC2(c3ccccc3Cl)CC2)CC1=O` [Example 20, 4-(((3aS,5aR,5bR,7aR,9S,11aR,11bR,13aS)-3a-((E)-3-((1-(2-Chlorophenyl)cyclopropyl)amino)-3-oxoprop-1-en-1-yl)-1-isopropyl-5a,5b,8,8,11a-pentamethyl-2-oxo-3,3a,4,5,5a,5b,6,7,7a,8,9,10,11,11a,11b,12,13,13a-octadecahydro-2H-cyclopenta[a]chrysen-9-yl)oxy)-2,2-dimethyl-4-oxobutanoic acid] the value was 10 to 250 nM; for `CC(C)C1=C2[C@H]3CC[C@@H]4[C@@]5(C)CC[C@H](OC(=O)CC(C)(C)C(=O)O)C(C)(C)[C@@H]5CC[C@@]4(C)[C@]3(C)CC[C@@]2(/C=C/C(=O)N[C@H](C)c2ccccc2Cl)CC1=O` [Example 22, 4-(((3aS,5aR,5bR,7aR,9S,11aR,11bR,13aS)-3a-((E)-3-(((R)-1-(2-Chlorophenyl)ethyl)amino)-3-oxoprop-1-en-1-yl)-1-isopropyl-5a,5b,8,8,11a-pentamethyl-2-oxo-3,3a,4,5,5a,5b,6,7,7a,8,9,10,11,11a,11b,12,13,13a-octadecahydro-2H-cyclopenta[a]chrysen-9-yl)oxy)-2,2-dimethyl-4-oxobutanoic acid], 10 to 250 nM; for `CC(C)C1=C2[C@H]3CC[C@@H]4[C@@]5(C)CC[C@H](OC(=O)CC(C)(C)C(=O)O)C(C)(C)[C@@H]5CC[C@@]4(C)[C@]3(C)CC[C@@]2(/C=C/C(=O)N[C@@H](C)c2ncccn2)CC1=O` [Example 11, 4-(((3aS,5aR,5bR,7aR,9S,11aR,11bR,13aS)-1-isopropyl-5a,5b,8,8,11a-pentamethyl-2-oxo-3a-((E)-3-oxo-3-(((S)-1-(pyrimidin-2-yl)ethyl)amino)prop-1-en-1-yl)-3,3a,4,5,5a,5b,6,7,7a,8,9,10,11,11a,11b,12,13,13a-octadecahydro-2H-cyclopenta[a]chrysen-9-yl)oxy)-2,2-dimethyl-4-oxobutanoic acid], 10 to 250 nM. For `CC(C)C1=C2[C@H]3CC[C@@H]4[C@@]5(C)CC[C@H](OC(=O)CC(C)(C)C(=O)O)C(C)(C)[C@@H]5CC[C@@]4(C)[C@]3(C)CC[C@@]2(/C=C/C(=O)NC2(c3ncccn3)CC2)CC1=O` [Example 13, 4-(((3aS,5aR,5bR,7aR,9S,11aR,11bR,13aS)-1-isopropyl-5a,5b,8,8,11a-pentamethyl-2-oxo-3a-((E)-3-oxo-3-((1-(pyrimidin-2-yl)cyclopropyl)amino)prop-1-en-1-yl)-3,3a,4,5,5a,5b,6,7,7a,8,9,10,11,11a,11b,12,13,13a-octadecahydro-2H-cyclopenta[a]chrysen-9-yl)oxy)-2,2-dimethyl-4-oxobutanoic acid] the value was 10 to 250 nM; for `CC(C)C1=C2[C@H]3CC[C@@H]4[C@@]5(C)CC[C@H](OC(=O)CC(C)(C)C(=O)O)C(C)(C)[C@@H]5CC[C@@]4(C)[C@]3(C)CC[C@@]2(/C=C/C(=O)NC2CCCCC2)CC1=O` [Example 30, 4-(((3aS,5aR,5bR,7aR,9S,11aR,11bR,13aS)-3a-((E)-3-(Cyclohexylamino)-3-oxoprop-1-en-1-yl)-1-isopropyl-5a,5b,8,8,11a-pentamethyl-2-oxo-3,3a,4,5,5a,5b,6,7,7a,8,9,10,11,11a,11b,12,13,13a-octadecahydro-2H-cyclopenta[a]chrysen-9-yl)oxy)-2,2-dimethyl-4-oxobutanoic acid], 10 to 250 nM; for `CC(C)C1=C2[C@H]3CC[C@@H]4[C@@]5(C)CC[C@H](OC(=O)CC(C)(C)C(=O)O)C(C)(C)[C@@H]5CC[C@@]4(C)[C@]3(C)CC[C@@]2(/C=C/C(=O)N[C@H](C)c2cccc(Cl)c2)CC1=O` [Example 31, 4-(((3aS,5aR,5bR,7aR,9S,11aR,11bR,13aS)-3a-((E)-3-(((R)-1-(3-Chlorophenyl)ethyl)amino)-3-oxoprop-1-en-1-yl)-1-isopropyl-5a,5b,8,8,11a-pentamethyl-2-oxo-3,3a,4,5,5a,5b,6,7,7a,8,9,10,11,11a,11b,12,13,13a-octadecahydro-2H-cyclopenta[a]chrysen-9-yl)oxy)-2,2-dimethyl-4-oxobutanoic acid], 10 to 250 nM. The value for `CC(C)C1=C2[C@H]3CC[C@@H]4[C@@]5(C)CC[C@H](OC(=O)CC(C)(C)C(=O)O)C(C)(C)[C@@H]5CC[C@@]4(C)[C@]3(C)CC[C@@]2(/C=C/C(=O)N[C@H](C)c2ncccn2)CC1=O` [Example 10, 4-(((3aS,5aR,5bR,7aR,9S,11aR,11bR,13aS)-1-Isopropyl-5a,5b,8,8,11a-pentamethyl-2-oxo-3a-((E)-3-oxo-3-(((R)-1-(pyrimidin-2-yl)ethyl)amino)prop-1-en-1-yl)-3,3a,4,5,5a,5b,6,7,7a,8,9,10,11,11a,11b,12,13,13a-octadecahydro-2H-cyclopenta[a]chrysen-9-yl)oxy)-2,2-dimethyl-4-oxobutanoic acid] was 10 to 250 nM. In turn, `CC(C)C1=C2[C@H]3CC[C@@H]4[C@@]5(C)CC[C@H](OC(=O)CC(C)(C)C(=O)O)C(C)(C)[C@@H]5CC[C@@]4(C)[C@]3(C)CC[C@@]2(/C=C/C(=O)N[C@H](C)c2ccncn2)CC1=O` [Example 9, 4-(((3aS,5aR,5bR,7aR,9S,11aR,11bR,13aS)-1-Isopropyl-5a,5b,8,8,11a-pentamethyl-2-oxo-3a-((E)-3-oxo-3-(((R)-1-(pyrimidin-4-yl)ethyl)amino)prop-1-en-1-yl)-3,3a,4,5,5a,5b,6,7,7a,8,9,10,11,11a,11b,12,13,13a-octadecahydro-2H-cyclopenta[a]chrysen-9-yl)oxy)-2,2-dimethyl-4-oxobutanoic acid] yielded a half-inhibitory concentration (IC50) of 10 to 250 nM.
